Non-standard residues stand in square brackets, D forms with d. Residues, ends and D or L forms follow the SMILES beside them. ξ: configuration not given here. *: point of attachment. Desaminotyrosyl = O=C(CCc1ccc(O)cc1)*; NMeY = CN[C@@H](Cc1ccc(O)cc1)C(=O)O; Agmatine = N=C(N)NCCCCN*; NMeA = CN[C@@H](C)C(=O)O; Nle = CCCC[C@H](N)C(=O)O; Orn = NCCC[C@H](N)C(=O)O; Abu = CC[C@H](N)C(=O)O; GABA = NCCCC(=O)O; ξA = CC(N)C(=O)O
Key:
GH release = assay: In vivo endocrine activity, GH release after subcutaneous administration (Table 9); settings: rat; for GH releasing potency relative to JI-38 (=1): subcutaneous (s.c.) injection
Description: Subcutaneous Administration. Adult male rats were used and anesthetized with pentobarbital (6 mg/100 g, b.w.), by i.p. injection. […] Blood samples were taken from the jugular vein 5, 15 and/or 30 minutes after the injection. The blood samples were centrifuged, plasma was removed and the GH level was measured byELISA. The results are summarized in terms of potency in Table 9.

GHRH receptor = biological target: T1, GHRH receptor (Homo sapiens, UniProt Q02643); assay: GHRH receptor binding, competition with 125I-labeled JV-1-42, human pituitary membrane homogenates (Table 7); design: Normal human pituitaries were purchased from the National Hormone and Peptide Program; tissue National Hormone and Peptide Program (A.F. Parlow, Harbor-UCLA Medical Center, Torrance, Calif.); host or cells: normal human pituitary, membrane fraction; settings: for Relative affinity (Binding potency) vs JI-38: JI-38 = 1, Table 7
T1 sequence (Q02643 23-423): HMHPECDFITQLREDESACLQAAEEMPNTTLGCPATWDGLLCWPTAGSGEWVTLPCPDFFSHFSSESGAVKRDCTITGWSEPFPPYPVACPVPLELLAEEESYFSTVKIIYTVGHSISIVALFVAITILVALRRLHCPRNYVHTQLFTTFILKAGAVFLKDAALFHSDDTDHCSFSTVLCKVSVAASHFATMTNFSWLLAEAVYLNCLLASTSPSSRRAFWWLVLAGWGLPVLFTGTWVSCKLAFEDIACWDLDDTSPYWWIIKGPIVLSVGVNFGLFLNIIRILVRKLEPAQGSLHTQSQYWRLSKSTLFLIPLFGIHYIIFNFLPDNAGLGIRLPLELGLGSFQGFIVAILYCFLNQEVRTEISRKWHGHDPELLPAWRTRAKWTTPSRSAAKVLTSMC
Excerpt: Normal human pituitaries were purchased from the National Hormone and Peptide Program (A.F. Parlow, Los Angeles, County Harbor-UCLA Medical Center, Torrance, Calif.).

Structure (SMILES)	GH releasing potency relative to JI-38 (=1) (GH release; 15 min after)	GH releasing potency relative to JI-38 (=1) (GH release; 30 min after)	Relative affinity (Binding potency) vs JI-38 (GHRH receptor)	Stimulation of growth hormone levels after subcutaneous administration (in words) (GH release; s.c.)	GH releasing potency relative to JI-38 (=1) (GH release; 5 min after)	IC50 (GHRH receptor; 125I-JV-1-42, human pituitary membranes, Table 7) [nM]
CCCC[C@H](NC(=O)[C@@H](NC(=O)[C@H](CC(=O)O)NC(=O)[C@H](CCC(N)=O)NC(=O)[C@H](CC(C)C)NC(=O)[C@H](CC(C)C)NC(=O)[C@H](CCCN)NC(=O)[C@H](CCCNC(=N)N)NC(=O)[C@H](C)NC(=O)[C@H](CO)NC(=O)[C@H](CC(C)C)NC(=O)[C@H](CCC(N)=O)NC(=O)[C@H](CC)NC(=O)[C@H](CC(C)C)NC(=O)[C@@H](NC(=O)[C@H](CCCN)NC(=O)[C@H](CCCNC(=N)N)NC(=O)[C@H](Cc1ccc(O)cc1)NC(=O)[C@H](CO)NC(=O)[C@H](CC(N)=O)NC(=O)[C@@H](NC(=O)[C@H](Cc1ccccc1)NC(=O)[C@@H](NC(=O)[C@H](C)NC(=O)[C@H](CC(=O)O)NC(=O)[C@H](C)NC(=O)[C@H](Cc1ccc(O)cc1)NC)[C@@H](C)CC)[C@@H](C)O)C(C)C)[C@@H](C)CC)C(=O)N[C@@H](CO)C(=O)N[C@@H](CCCNC(=N)N)C(=O)NCCCC(=O)NC [Peptide P-27415, [N—Me-Tyr^1, Orn^12, Abu^15, Orn^21, Nle^27, Gab^30]hGHRH(1-30)NH—CH3] (H-[NMeY]ADAIFTNSYR[Orn]VL[Abu]QLSAR[Orn]LLQDI[Nle]SR[GABA]-NHMe)	0.45	0.41	1.44	–	–	–
CCCC[C@H](NC(=O)[C@@H](NC(=O)[C@H](CC(=O)O)NC(=O)[C@H](CCC(N)=O)NC(=O)[C@H](CC(C)C)NC(=O)[C@H](CC(C)C)NC(=O)[C@H](CCCN)NC(=O)[C@H](CCCNC(=N)N)NC(=O)[C@H](C)NC(=O)[C@H](CO)NC(=O)[C@H](CC(C)C)NC(=O)[C@H](CCC(N)=O)NC(=O)[C@H](CC)NC(=O)[C@H](CC(C)C)NC(=O)[C@@H](NC(=O)[C@H](CCCN)NC(=O)[C@H](CCCNC(=N)N)NC(=O)[C@H](Cc1ccc(O)cc1)NC(=O)[C@H](CO)NC(=O)[C@H](CC(N)=O)NC(=O)[C@@H](NC(=O)[C@H](Cc1ccccc1)NC(=O)[C@@H](NC(=O)[C@H](C)NC(=O)[C@H](CC(=O)O)NC(=O)[C@@H](C)NC(=O)[C@H](Cc1ccc(O)cc1)NC)[C@@H](C)CC)[C@@H](C)O)C(C)C)[C@@H](C)CC)C(=O)N[C@@H](CO)C(=O)N[C@@H](CCCNC(=N)N)C(=O)NCCCC(N)=O [Peptide P-25501, [N—Me-Tyr^1, D-Ala^2, Orn^12, Abu^15, Orn^21, Nle^27, Gab^30]hGHRH(1-30)NH2] (H-[NMeY][dA]DAIFTNSYR[Orn]VL[Abu]QLSAR[Orn]LLQDI[Nle]SR[GABA]-NH2)	1.36	1.63	4.07	stimulated greater growth hormone levels than hGHRH or JI-38	1.40	–
CCCC[C@H](NC(=O)[C@@H](NC(=O)[C@H](CC(=O)O)NC(=O)[C@H](CCC(N)=O)NC(=O)[C@H](CC(C)C)NC(=O)[C@H](CC(C)C)NC(=O)[C@H](CCCN)NC(=O)[C@H](CCCNC(=N)N)NC(=O)[C@H](C)NC(=O)[C@H](CO)NC(=O)[C@H](CC(C)C)NC(=O)[C@H](CCC(N)=O)NC(=O)[C@H](CC)NC(=O)[C@H](CC(C)C)NC(=O)[C@@H](NC(=O)[C@H](CCCN)NC(=O)[C@H](CCCNC(=N)N)NC(=O)[C@H](Cc1ccc(O)cc1)NC(=O)[C@H](CO)NC(=O)[C@H](CC(N)=O)NC(=O)[C@@H](NC(=O)[C@H](Cc1ccccc1)NC(=O)[C@@H](NC(=O)[C@H](C)NC(=O)[C@H](CC(=O)O)NC(=O)[C@H](CC)NC(=O)[C@H](Cc1ccc(O)cc1)NC)[C@@H](C)CC)[C@@H](C)O)C(C)C)[C@@H](C)CC)C(=O)N[C@@H](CO)C(=O)N[C@@H](CCCNC(=N)N)C(=O)NCCCC(N)=O [Peptide P-25503, [N—Me-Tyr^1, Abu^2, Orn^12, Abu^15, Orn^21, Nle^27, Gab^30]hGHRH(1-30)NH2] (H-[NMeY][Abu]DAIFTNSYR[Orn]VL[Abu]QLSAR[Orn]LLQDI[Nle]SR[GABA]-NH2)	0.64	0.63	3.67	–	0.55	–
CCCC[C@H](NC(=O)[C@@H](NC(=O)[C@H](CC(=O)O)NC(=O)[C@H](CCC(N)=O)NC(=O)[C@H](CC(C)C)NC(=O)[C@H](CC(C)C)NC(=O)[C@H](CCCN)NC(=O)[C@H](CCCNC(=N)N)NC(=O)[C@H](C)NC(=O)[C@H](CO)NC(=O)[C@H](CC(C)C)NC(=O)[C@H](CCC(N)=O)NC(=O)[C@H](CC)NC(=O)[C@H](CC(C)C)NC(=O)[C@@H](NC(=O)[C@H](CCCN)NC(=O)[C@H](CCCNC(=N)N)NC(=O)[C@H](Cc1ccc(O)cc1)NC(=O)[C@H](CO)NC(=O)[C@H](C)N(C)C(=O)[C@@H](NC(=O)[C@H](Cc1ccccc1)NC(=O)[C@@H](NC(=O)[C@H](C)NC(=O)[C@H](CC(=O)O)NC(=O)[C@@H](C)NC(=O)CCc1ccc(O)cc1)[C@@H](C)CC)[C@@H](C)O)C(C)C)[C@@H](C)CC)C(=O)N[C@@H](CC(=O)O)C(=O)NCCCCNC(=N)N [Peptide P-20357, [Dat^1, D-Ala^2, N—Me-Ala^8, Orn^12, Abu^15, Orn^21, Nle^27, Asp^28, Agm^29]hGHRH (1-29)NH2] (Desaminotyrosyl-[dA]DAIFT[NMeA]SYR[Orn]VL[Abu]QLSAR[Orn]LLQDI[Nle]D-Agmatine)	1.07	1.41	5.06	–	0.63	0.86
CCCC[C@H](NC(=O)[C@@H](NC(=O)[C@H](CC(=O)O)NC(=O)[C@H](CCC(N)=O)NC(=O)[C@H](CC(C)C)NC(=O)[C@H](CC(C)C)NC(=O)[C@H](CCCN)NC(=O)[C@H](Cc1c[nH]cn1)NC(=O)[C@H](C)NC(=O)[C@H](CO)NC(=O)[C@H](CC(C)C)NC(=O)[C@H](CCC(N)=O)NC(=O)[C@H](CC)NC(=O)[C@H](CC(C)C)NC(=O)[C@@H](NC(=O)[C@H](CCCN)NC(=O)[C@H](Cc1c[nH]cn1)NC(=O)[C@H](Cc1ccc(O)cc1)NC(=O)[C@H](CO)NC(=O)[C@H](CCC(N)=O)NC(=O)[C@@H](NC(=O)[C@H](Cc1ccccc1)NC(=O)[C@@H](NC(=O)[C@H](C)NC(=O)[C@H](CC(=O)O)NC(=O)C(C)NC(=O)CCc1ccc(O)cc1)[C@@H](C)CC)[C@@H](C)O)C(C)C)[C@@H](C)CC)C(=O)N[C@@H](CC(=O)O)C(=O)N[C@@H](CCCNC(=N)N)C(=O)NC (some centres unmarked) [Peptide P-27413, [Dat^1, Gln^8, His^11, Orn^12, Abu^15, His^20, Orn^21, Nle^27, Asp^28]hGHRH(1-29)NH—CH3] (Desaminotyrosyl-[ξA]DAIFTQSYH[Orn]VL[Abu]QLSAH[Orn]LLQDI[Nle]DR-NHMe)	0.36	0.57	1.78	–	–	–

From patent US10555987B2, “GHRH agonists for the treatment of ischemic disorders” (UNIVERSITY OF MIAMI, priority 2012, dated 2020)
